According to PubChem BioAssay (NCI):
Several values for one entry are separate records, joined by “and”; a condition that tells them apart may be missing. Equal entries are not always repeated.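 Where inhibition never reached the appropriate level, the endpoint shown equals the highest concentration tested. Otherwise, values were interpolated linearly from a five-concentration, 48-hour dose response in 96-well plates. At the GI50, growth is halved. TGI: concentration producing complete growth inhibition.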

Key:
Test in all cases: DTP human tumour cell line panel, 48 h
SF-539 CNS = system: SF-539 CNS
NCI-H23 lung = system: NCI-H23 lung
NCI/ADR-RES ovarian = system: NCI/ADR-RES ovarian
M14 melanoma = system: M14 melanoma
LOX IMVI melanoma = system: LOX IMVI melanoma
SR leukemia = system: SR leukemia
HL-60(TB) leukemia = system: HL-60(TB) leukemia
DU-145 prostate = system: DU-145 prostate
A549 NSCLC = system: A549 NSCLC
BT-549 breast = system: BT-549 breast

| Compound | TGI (SF-539 CNS) | TGI (NCI-H23 lung) | TGI (NCI/ADR-RES ovarian) | TGI (M14 melanoma) | TGI (LOX IMVI melanoma) | TGI (SR leukemia) | TGI (HL-60(TB) leukemia) | TGI (DU-145 prostate) | TGI (A549 NSCLC) | TGI (BT-549 breast) | GI50 (HL-60(TB) leukemia) |
| --- | --- | --- | --- | --- | --- | --- | --- | --- | --- | --- | --- |
| CC(=O)N=C1N(/C=C2\C(=O)Oc3ccccc3C2=O)C(=O)/C(=C/c2ccc(NC(C)=O)cc2)N1C | > 100 µM | > 100 µM | > 100 µM | > 100 µM | > 100 µM | > 100 µM | > 100 µM | > 100 µM | > 100 µM |  |  |
| O=S(=O)(/N=C(\NO)Nc1ccc(Cl)cc1)c1cccc2nsnc12 | > 100 µM | > 100 µM | > 100 µM | > 100 µM | 61.4 µM |  | 39.1 µM | > 100 µM | > 100 µM | 83.9 µM |  |
| CC(C)C(N)=O | > 5000 µM | > 5000 µM |  | > 5000 µM | > 5000 µM | > 5000 µM | > 5000 µM |  | > 5000 µM |  |  |
| COC(=O)[C@H](Cc1c[nH]c2ccccc12)NC(=O)c1ccc(CNC(=O)/C=C/c2cccc(Oc3ccccc3)c2)cc1 |  | > 100 µM | > 100 µM | > 100 µM |  | > 100 µM |  | > 100 µM | > 100 µM | > 100 µM |  |
| C[N+]1(CCCl)CC[N+](C)(CCCl)CC1 (configuration not stated) | > 100 µM | > 100 µM | > 100 µM | > 100 µM | > 100 µM |  | > 100 µM | > 100 µM | > 100 µM | > 100 µM |  |
| Cc1csc(/N=C\c2c(O)c3ccccc3oc2=O)n1 | > 100 µM | 33 µM | > 100 µM | > 100 µM | > 100 µM |  |  | > 100 µM | > 100 µM | > 100 µM |  |
| Cc1c2c(OCCN3CCCCC3)nn(C)c(=O)c2c(C)n1-c1ccccc1 | 74.9 µM | > 100 µM | > 100 µM | 33.4 µM | 51.1 µM |  | > 100 µM | > 100 µM | > 100 µM | > 100 µM |  |
| CN(C)CCCn1nc(N)c2nc3cc(Cl)ccc3nc21 | > 100 µM | > 100 µM | > 100 µM | 47.4 µM | > 100 µM | > 100 µM |  | > 100 µM | > 100 µM | > 100 µM |  |
| CCNC(=O)c1c(O)c2ccccc2[nH]c1=O | > 100 µM | > 100 µM | > 100 µM |  | > 100 µM | > 100 µM | > 100 µM | > 100 µM | > 100 µM | > 100 µM |  |
| COc1ccc(C2C3COc4ccccc4C3=NN2c2ccccc2)cc1 (configuration not stated) | > 100 µM | > 100 µM | > 100 µM | > 100 µM | > 100 µM | > 100 µM |  |  | > 100 µM | > 100 µM |  |
| CC1C2(C)OC(=N)C(C#N)(C(c3cccc([N+](=O)[O-])c3)O2)C1(C#N)C#N (configuration not stated) | 34.2 µM | > 100 µM | > 100 µM | 38.7 µM | 36 µM |  | 39 µM | > 100 µM | > 100 µM | > 100 µM |  |
| O=C(Cc1ccccc1)Nn1c(-c2ccccc2)nc2ccccc2c1=O | > 100 µM | > 100 µM |  | > 100 µM | > 100 µM | > 100 µM | > 100 µM | > 100 µM | > 100 µM | > 100 µM |  |
| O=C1CCCCCCCCCCC1CN1CCCCC1 (configuration not stated) |  | > 100 µM |  |  | > 100 µM | > 100 µM | > 100 µM |  | > 100 µM |  |  |
| CCOC(=O)c1sc2[n+](c1C)C(=O)/C(=C/c1ccc([N+](=O)[O-])cc1)S2 | 54.7 µM | 48.4 µM | 42.5 µM | > 100 µM | 61.1 µM | 57.7 µM | > 100 µM | 92.3 µM | > 100 µM |  |  |
| N#Cc1c(-c2ccccc2)[nH]c(=O)n(C2OC(CO)C(O)C(O)C2O)c1=O (configuration not stated) | > 100 µM | > 100 µM | > 100 µM | > 100 µM |  |  | > 100 µM | > 100 µM | > 100 µM | > 100 µM | 47.4 µM and > 100 µM |
| Cc1ccc2oc(=O)c(C(=O)Nc3nc(C45CC6CC(CC(C6)C4)C5)cs3)cc2c1 | > 100 µM | > 100 µM | > 100 µM |  | > 100 µM | > 100 µM | > 100 µM | > 100 µM | > 100 µM | > 100 µM |  |
| Oc1ccc(Cl)cc1CN1CCN(Cc2cc(Cl)ccc2O)C1 | 2.81 µM | 5.53 µM | 1.1 µM | 2.87 µM | 4.07 µM |  | 7.41 µM | 11.6 µM | 9.85 µM |  |  |
| Cc1ccc(/C=N/Nc2ccc3ccccc3n2)s1 | > 100 µM | > 100 µM | > 100 µM | 58.8 µM | 36.5 µM | > 100 µM | > 100 µM |  | 40 µM | 68.7 µM |  |
| C=C1C(=O)O[C@H]2[C@@H](O)[C@H](C)CCC[C@]3(C)O[C@H]3CC[C@@]3(C)O[C@@H]3C[C@@H]12 | 13.3 µM | 13 µM | 19 µM | 12.4 µM |  | 5.99 µM | 2.03 µM | 12.9 µM | 18.3 µM | 4.5 µM |  |
| CCOC(=O)CC(=O)Nc1cccc2[nH]cnc12 | > 100 µM | > 100 µM | > 100 µM | > 100 µM |  | > 100 µM | > 100 µM | > 100 µM | > 100 µM | > 100 µM |  |
| COc1ccc(N2C=Nn3c(nc4sc5c(c4c3=O)CCCC5)C2)cc1 |  | > 100 µM | > 100 µM | > 100 µM | > 100 µM | > 100 µM |  | > 100 µM | > 100 µM | > 100 µM |  |
| COc1ccc(CN=C(N)N)c2ccccc12 | 52.8 µM | > 100 µM | > 100 µM | > 100 µM | > 100 µM |  | 91 µM | > 100 µM | > 100 µM |  |  |
| O=CC12C3CCC1C2C(=O)C3 (configuration not stated) | > 100 µM | > 100 µM | > 100 µM | > 100 µM | > 100 µM | > 100 µM |  | > 100 µM | > 100 µM | > 100 µM |  |
| CN(C)C(=O)OC(Cn1cncn1)(Cn1cncn1)c1ccc(Cl)cc1Cl | > 100 µM |  | > 100 µM | > 100 µM | > 100 µM |  | > 100 µM | > 100 µM | > 100 µM | > 100 µM |  |
